According to PMC10515640, “Structure-Based Optimization of Covalent, Small-Molecule Stabilizers of the 14-3-3σ/ERα Protein–Protein Interaction from Nonselective Fragments” (Journal of the American Chemical Society, 2023):

Legend:
14-3-3σ/ERα [1] = target: T1, 14-3-3σ/ERα (Homo sapiens, UniProt P03372+P31947); assay: Fluorescence anisotropy compound titration, FAM-labeled ERα peptide; type: binding; conditions: 10 nM ERα-FAM labeled peptide, 1 µM 14-3-3σ, overnight incubation (24 h); read-out: EC50 value ERα (FA compound titration)
T1 construct: The 14-3-3 σ isoform (full-length for mass spectrometry and fluorescence anisotropy assays, ΔC for crystallography); made in house; host or cells: E. coli Rosetta 2(DE3)pLysS, pPROEX HTb vector
Method in brief: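 Fluorescence anisotropy compound titration measuring stabilization of the 14-3-3σ/ERα interaction: compounds were titrated in a 2-fold dilution series (starting at 500 or 1000 µM) into a mix of 10 nM fluorescein-labeled ERα peptide and 1 µM 14-3-3σ (about EC25 of the complex) in HEPES buffer with 1% DMSO, read after overnight incubation at room temperature; EC50 from 4PL fitting.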

14-3-3σ/ERα [2] = target: T1, 14-3-3σ/ERα; assay: Mass spectrometry dose response, compound binding to 14-3-3σ in the presence of ERα phosphopeptide; conditions: 100 nM compound, 100 nM 14-3-3σ, ERα-peptide 2 µM
Method in brief: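 Covalent labeling of Cys38 on 14-3-3σ was tracked by LC-MS on a Waters Acquity UPLC/Xevo G2-XS Q-Tof, with samples desalted on a Protein BEH-C4 column. Full-length wild type 14-3-3σ (100 nM) plus ERα phosphopeptide was mixed with compound in 10 mM TRIS, pH 8.0, at 50 μl per well. Percent bound was measured at several time points.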

14-3-3σ/C-RAF [3] = target: T2, 14-3-3σ/C-RAF (Homo sapiens, UniProt P31947); assay: Fluorescence anisotropy compound titration, FAM-labeled C-RAF peptide; type: binding; conditions: 10 nM C-RAF-FAM labeled peptide, 5 µM 14-3-3σ, overnight incubation; read-out: EC50 value C-RAF (FA compound titration)
T2 construct: The 14-3-3 σ isoform (full-length for mass spectrometry and fluorescence anisotropy assays, ΔC for crystallography); made in house; host or cells: E. coli Rosetta 2(DE3)pLysS, pPROEX HTb vector
T2 sequence (P31947 1-248): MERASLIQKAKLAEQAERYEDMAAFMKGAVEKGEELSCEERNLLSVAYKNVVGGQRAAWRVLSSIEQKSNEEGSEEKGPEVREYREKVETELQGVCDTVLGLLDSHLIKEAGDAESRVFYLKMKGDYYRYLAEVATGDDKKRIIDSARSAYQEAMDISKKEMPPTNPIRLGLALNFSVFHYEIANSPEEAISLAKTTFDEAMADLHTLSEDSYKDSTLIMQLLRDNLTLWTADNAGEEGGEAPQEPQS
From the text: Two orthogonal assays were developed for screening. For the primary assay, mass spectrometry (MS) was used to monitor the formation of the covalent bond between the compound and the native cysteine (Cys38 on 14-3-3σ) (Figure 1D). The assay was first performed in the absence of peptide to determine binding to 14-3-3σ only (apo screening, D1) and then in the presence of both 14-3-3σ and the peptide as an indication of how much the peptide stabilized compound binding (D2). […] As a secondary assay, fluorescence anisotropy (FA) was used. In this case, compounds were titrated to mixtures of 14-3-3σ and FAM-labeled peptides. […] Thus, the two assays are highly complementary; the MS assay reports on compound binding and the FA assay reports on peptide binding. […]
diluted in buffer (10 mM HEPES, pH 7.5, 150 mM NaCl, 0.1% Tween20, 1 mg/mL Bovine Serum Albumin (BSA; Sigma-Aldrich). Final DMSO in the assay was always 1%. Dilution series of 14-3-3 proteins or compounds were made in […]
Compound titrations were made by titrating the compound in a 2-fold dilution series (starting at 500 or 1000 µM) to a mix of fluorescein-labeled peptide (10 nM) and 14-3-3σ (concentration at approximately the EC20 to EC30 value of the protein-peptide complex; 1 µM for ERα and 5 µM for C-RAF). Using the ~EC25 value makes the assay sensitive for measuring an increase in PPI formation. Fluorescence anisotropy measurements were performed directly and after overnight incubation at room temperature. […]
Wells containing only FAM-peptide were used to set as G-factor at 35 mP. Data reported are at endpoint. EC50 and apparent Kd values were obtained from fitting the data with a four-parameter logistic model (4PL) in GraphPad Prism 7 for Windows. Data was obtained and averaged based on either three (compound titrations) or two (protein titrations) independent experiments.

14-3-3σ = target: T3, 14-3-3σ (Homo sapiens, UniProt P31947); assay: Mass spectrometry dose response, compound binding to 14-3-3σ in the absence of peptide (apo); conditions: 100 nM compound, 100 nM 14-3-3σ
T3 construct: The 14-3-3 σ isoform (full-length for mass spectrometry and fluorescence anisotropy assays, ΔC for crystallography); made in house; host or cells: E. coli Rosetta 2(DE3)pLysS, pPROEX HTb vector
T3 sequence (P31947 1-248): T2 sequence (P31947 1-248)
Method in brief: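 Covalent binding of compounds to Cys38 of full-length wild type human 14-3-3σ (100 nM) was measured by LC-MS without peptide present. Compounds from 50 mM DMSO stocks were serially diluted 3-fold and 1000 nl transferred to plates in TRIS buffer (10 mM, pH 8.0), 50 μl per well. Samples were desalted on a BEH-C4 column and analysed on a Xevo G2-XS Q-Tof at several time points.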

14-3-3σ/C-RAF [4] = target: T2, 14-3-3σ/C-RAF; assay: Mass spectrometry dose response, compound binding to 14-3-3σ in the presence of C-RAF phosphopeptide; conditions: 100 nM compound, 100 nM 14-3-3σ, C-RAF peptide 18 µM
Method in brief: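 Covalent binding of compounds to the native Cys38 of 14-3-3σ was monitored by LC-MS on a Waters Acquity UPLC/Xevo G2-XS Q-Tof, with samples desalted on a BEH-C4 column. Full-length wild type 14-3-3σ (100 nM) with C-RAF peptide in TRIS buffer (10 mM, pH 8.0) was incubated with compound dose series at room temperature.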

| Structure (SMILES) | EC50 (14-3-3σ/ERα [1]) | Percentage (%) bound of compound to 14-3-3σ, ERα 1h (14-3-3σ/ERα [2]) | Percentage (%) bound of compound to 14-3-3σ, ERα 8h (14-3-3σ/ERα [2]) | Percentage (%) bound of compound to 14-3-3σ, ERα 16h (14-3-3σ/ERα [2]) | Percentage (%) bound of compound to 14-3-3σ, ERα 24h (14-3-3σ/ERα [2]) | EC50 (14-3-3σ/C-RAF [3]) | Percentage (%) bound of compound to 14-3-3σ, APO 1h (14-3-3σ) | Percentage (%) bound of compound to 14-3-3σ, APO 8h (14-3-3σ) | Percentage (%) bound of compound to 14-3-3σ, APO 16h (14-3-3σ) | Percentage (%) bound of compound to 14-3-3σ, APO 24h (14-3-3σ) | Percentage (%) bound of compound to 14-3-3σ, CRAF 1h (14-3-3σ/C-RAF [4]) | Percentage (%) bound of compound to 14-3-3σ, CRAF 8h (14-3-3σ/C-RAF [4]) | Percentage (%) bound of compound to 14-3-3σ, CRAF 24h (14-3-3σ/C-RAF [4]; 24h) | Percentage (%) bound of compound to 14-3-3σ, CRAF 24h (14-3-3σ/C-RAF [4]; head prints 24h) |
| --- | --- | --- | --- | --- | --- | --- | --- | --- | --- | --- | --- | --- | --- | --- |
| O=C(CCl)NCC1CCN(C(=O)C2(Oc3ccc(Cl)cc3)CCCCC2)CC1 [compound 122] | 55 ± 14 µM | 1.6% | 7.1% | 11.5% | 32.3% | > 150 µM | 0% | 0% | 0.8% | 1.3% | 1.5% | 4.8% | 17.5% | 8.9% |
| O=C(CCl)NCC1CCN(C(=O)C2(Nc3ccc(Cl)cc3)CCCCC2)CC1 [compound 123] | 8 ± 1 µM | 3.4% | 8.3% | 20.8% | 63.9% | 59 ± 4 µM | 0.0% | 1.0% | 1.0% | 1.9% | 1.0% | 1.9% | 3.5% | 1.9% |
| O=C(CCl)NCC1CCN(C(=O)C2(Oc3ccc(Cl)cc3)CCC(F)(F)CC2)CC1 [compound 124] | 18 ± 0.4 µM | 7.4% | 15.3% | 33.4% | 66.9% | > 150 µM | 0% | 1.0% | 1.4% | 1.6% | 2.0% | 2.9% | 15.3% | 9.1% |
| O=C(CCl)NCC1CCN(C(=O)C2(Nc3ccc(Cl)cc3)CCC(F)(F)CC2)CC1 [compound 125] | 12 ± 2 µM | 13.8% | 30.0% | 64.6% | 87.5% | > 150 µM | 0.4% | 1.1% | 2.1% | 6.2% | 4.9% | 7.6% | 23.2% | 12.4% |
| O=C(CCl)NCC1CCN(C(=O)C2(Oc3ccc(Cl)cc3)CCOCC2)CC1 [compound 126] | 9 ± 2 µM | 1.7% | 6.2% | 9.1% | 15.1% | > 150 µM | 0% | 0% | 0% | 1.0% | 0.0% | 1.0% | 4.7% | 3.6% |
| Cl.O=C(CCl)NCC1CCN(C(=O)C2(Oc3ccc(Cl)cc3)CCNCC2)CC1 [compound 129] | 30 ± 1 µM | 16.5% | 31.4% | 58.4% | 82.6% | > 150 µM | 0.9% | 2.0% | 2.4% | 4.8% | 0.4% | 0.6% | 2.6% | 1.9% |
